PubChem BioAssay (NCI)
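Each compound was tested at five concentrations against cells in 96-well plates for 48 hours. Abbreviation: GI50, concentration required for 50% inhibition of growth. TGI: concentration producing complete growth inhibition.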

Key:
Assay in all cases: NCI tumour cell line growth inhibition, 48 h
786-0 renal = test system: 786-0 renal
A498 renal = test system: A498 renal
HCC-2998 colon = test system: HCC-2998 colon
KM12 colon = test system: KM12 colon
SF-268 CNS = test system: SF-268 CNS
UACC-62 melanoma = test system: UACC-62 melanoma
UO-31 renal = test system: UO-31 renal
MDA-MB-435 = test system: MDA-MB-435
PC-3 prostate = test system: PC-3 prostate
BT-549 breast = test system: BT-549 breast

O=C(CC(=O)C1CCOC1=O)C(=O)Nc1ccc(Cl)cc1Cl (stereo not drawn)
TGI (786-0 renal): > 100 µM
TGI (A498 renal): > 100 µM
TGI (HCC-2998 colon): > 100 µM
TGI (KM12 colon): > 100 µM
TGI (SF-268 CNS): > 100 µM
TGI (UACC-62 melanoma): > 100 µM
TGI (UO-31 renal): > 100 µM

CCC(C(=O)[O-])C(=O)[O-].CCC(C(=O)[O-])C(=O)[O-].N.N.NCCCCCCN.[Pt+4].[Pt+4]
GI50 (786-0 renal): 7.74 µM
TGI (786-0 renal): 14.5 µM
GI50 (A498 renal): 8.85 µM
TGI (A498 renal): 18.1 µM
GI50 (HCC-2998 colon): 8.29 µM
TGI (HCC-2998 colon): 15.8 µM
GI50 (KM12 colon): 8.83 µM
TGI (KM12 colon): 16.8 µM
GI50 (SF-268 CNS): 11.2 µM
TGI (SF-268 CNS): 24 µM
GI50 (UACC-62 melanoma): 7.5 µM
TGI (UACC-62 melanoma): 14.6 µM
GI50 (UO-31 renal): 7.06 µM
TGI (UO-31 renal): 13.6 µM

CCOC(=O)c1cc2c(n1Cc1ccccc1)-c1oncc1CC2
GI50 (786-0 renal): 7.51 µM
TGI (786-0 renal): 34.2 µM
GI50 (A498 renal): 1.55 µM
TGI (A498 renal): 7.5 µM
GI50 (HCC-2998 colon): 7.87 µM
TGI (HCC-2998 colon): 37.1 µM
GI50 (KM12 colon): 3.49 µM
TGI (KM12 colon): 27.6 µM
GI50 (MDA-MB-435): 0.878 µM
TGI (MDA-MB-435): 4.37 µM
GI50 (PC-3 prostate): 9.68 µM
TGI (PC-3 prostate): 94.1 µM
GI50 (SF-268 CNS): 6.89 µM
TGI (SF-268 CNS): 79 µM
GI50 (UACC-62 melanoma): 3.45 µM
TGI (UACC-62 melanoma): 17.2 µM
GI50 (UO-31 renal): 4.32 µM
TGI (UO-31 renal): 40.5 µM

COc1ccc(CNc2nc3c(NC(C)=O)cc(C(F)(F)F)cc3nc2-c2ccccc2)cc1OC
TGI (786-0 renal): > 100 µM
TGI (A498 renal): > 100 µM
TGI (HCC-2998 colon): > 100 µM
TGI (KM12 colon): > 100 µM
TGI (SF-268 CNS): > 100 µM
TGI (UACC-62 melanoma): > 100 µM
TGI (UO-31 renal): > 100 µM

CC(=O)OC1CC2C(C)(C)C(=O)C=CC2(C)C2CCC3(C)C(c4ccoc4)OC(=O)C4OC43C12C (stereo not drawn)
TGI (786-0 renal): 27.4 µM
TGI (A498 renal): > 100 µM
TGI (BT-549 breast): 44.4 µM
TGI (HCC-2998 colon): 14.2 µM
TGI (KM12 colon): 19.4 µM
TGI (PC-3 prostate): > 100 µM
TGI (SF-268 CNS): > 100 µM
TGI (UACC-62 melanoma): 18.4 µM
TGI (UO-31 renal): 15.2 µM

C/C(Cc1ccc(Cl)cc1)=C(/c1ccc(Cl)cc1)c1ccc(OCCN(C)C)cc1
GI50 (786-0 renal): 4.55 µM
TGI (786-0 renal): 9.78 µM
GI50 (BT-549 breast): 4.95 µM
TGI (BT-549 breast): 10 µM
GI50 (HCC-2998 colon): 2.03 µM
TGI (HCC-2998 colon): 6.7 µM
GI50 (KM12 colon): 4.16 µM
TGI (KM12 colon): 8.95 µM
GI50 (MDA-MB-435): 4.52 µM
TGI (MDA-MB-435): 8.81 µM
GI50 (PC-3 prostate): 4.34 µM
TGI (PC-3 prostate): 9.21 µM
GI50 (SF-268 CNS): 5.01 µM
TGI (SF-268 CNS): 10.1 µM
GI50 (UACC-62 melanoma): 5.19 µM
TGI (UACC-62 melanoma): 9.75 µM
GI50 (UO-31 renal): 4.27 µM
TGI (UO-31 renal): 8.65 µM

O=C1C(Cl)=C(Nc2cccc(O)c2)C(=O)N1c1ccccc1Cl
GI50 (786-0 renal): 39 µM
TGI (786-0 renal): > 100 µM
GI50 (BT-549 breast): 21.8 µM
TGI (BT-549 breast): 75.4 µM
GI50 (KM12 colon): 59.5 µM
TGI (KM12 colon): > 100 µM
GI50 (MDA-MB-435): 37.2 µM
TGI (MDA-MB-435): > 100 µM
GI50 (PC-3 prostate): 10.7 µM
TGI (PC-3 prostate): 31.2 µM
GI50 (SF-268 CNS): 13.6 µM
TGI (SF-268 CNS): 60.6 µM
GI50 (UACC-62 melanoma): 19.6 µM
TGI (UACC-62 melanoma): 62.3 µM
GI50 (UO-31 renal): 32.5 µM
TGI (UO-31 renal): > 100 µM

COC(=O)C(Cc1nc2ccc(Cl)cc2[nH]c1=O)/C(=N/NC(N)=O)C(=O)Nc1ccc(Cl)cc1 (stereo not drawn)
TGI (786-0 renal): > 100 µM
TGI (A498 renal): > 100 µM
TGI (HCC-2998 colon): > 100 µM
TGI (KM12 colon): > 100 µM
TGI (SF-268 CNS): > 100 µM
TGI (UACC-62 melanoma): > 100 µM
TGI (UO-31 renal): > 100 µM

O=C1C2c3[nH]c4ccccc4c3[C@@H]3CCCCC3C2C(=O)N1c1ccccc1 (stereo partly drawn)
TGI (786-0 renal): 37.5 µM
TGI (A498 renal): 71.9 µM
TGI (HCC-2998 colon): 36.5 µM
TGI (KM12 colon): 39.3 µM
TGI (SF-268 CNS): 62.9 µM
TGI (UACC-62 melanoma): 38.5 µM
TGI (UO-31 renal): 45 µM

Cc1ccc2[nH]c3c(ncc4[nH]c5ccccc5c43)c2c1
TGI (786-0 renal): 31.5 µM
TGI (HCC-2998 colon): 30.2 µM
TGI (KM12 colon): 29.6 µM
TGI (SF-268 CNS): 32.4 µM
TGI (UACC-62 melanoma): 31.7 µM
TGI (UO-31 renal): 30.3 µM

CSc1ccc(/C=C/c2ccnc3ccccc23)cc1
TGI (786-0 renal): 27.9 µM
TGI (A498 renal): 29.2 µM
TGI (HCC-2998 colon): 27.4 µM
TGI (KM12 colon): > 100 µM
TGI (MDA-MB-435): 12.5 µM
TGI (PC-3 prostate): 19.2 µM
TGI (SF-268 CNS): 66 µM
TGI (UO-31 renal): 26.5 µM

OC(c1ccccn1)C1CNc2ccccc21 (stereo not drawn)
TGI (786-0 renal): > 100 µM
TGI (A498 renal): > 100 µM
TGI (HCC-2998 colon): > 100 µM
TGI (KM12 colon): > 100 µM
TGI (SF-268 CNS): > 100 µM
TGI (UACC-62 melanoma): > 100 µM
TGI (UO-31 renal): > 100 µM

N#CC1(C=O)c2ccccc2C=CN1C(=O)c1ccccc1 (stereo not drawn)
TGI (786-0 renal): > 100 µM
TGI (A498 renal): > 100 µM
TGI (HCC-2998 colon): > 100 µM
TGI (KM12 colon): > 100 µM
TGI (SF-268 CNS): > 100 µM
TGI (UACC-62 melanoma): > 100 µM
TGI (UO-31 renal): > 100 µM

COC12CC(=O)C(C(C)=O)=C(O)C1(C)c1c(OC(C)=O)c(C)c(O)c(C(C)=O)c1O2 (stereo not drawn)
TGI (786-0 renal): > 100 µM
TGI (A498 renal): 78.1 µM
TGI (HCC-2998 colon): 84 µM
TGI (KM12 colon): > 100 µM
TGI (SF-268 CNS): > 100 µM
TGI (UACC-62 melanoma): 23.4 µM
TGI (UO-31 renal): 33 µM

CCC[CH2][Sn]([CH2]CCC)([O]C(=O)C1CCC(=O)N1)[O]C(=O)C1CCC(=O)N1 (stereo not drawn)
GI50 (786-0 renal): 0.196 µM
TGI (786-0 renal): 0.409 µM
GI50 (A498 renal): 0.21 µM
TGI (A498 renal): 0.517 µM
GI50 (HCC-2998 colon): 0.4 µM
TGI (HCC-2998 colon): 1.59 µM
GI50 (KM12 colon): 0.496 µM
TGI (KM12 colon): 1.73 µM
GI50 (UACC-62 melanoma): 0.154 µM
TGI (UACC-62 melanoma): 0.331 µM
GI50 (UO-31 renal): 0.711 µM
TGI (UO-31 renal): 1.98 µM

CCCCC#CC#Cc1cccc(=O)o1
GI50 (786-0 renal): 16.6 µM
TGI (786-0 renal): 34.6 µM
GI50 (BT-549 breast): 20.3 µM
TGI (BT-549 breast): 46.9 µM
GI50 (KM12 colon): 13.5 µM
TGI (KM12 colon): 27.4 µM
GI50 (MDA-MB-435): 22 µM
TGI (MDA-MB-435): 48.6 µM
GI50 (PC-3 prostate): 31 µM
TGI (PC-3 prostate): > 100 µM
GI50 (SF-268 CNS): 41.4 µM
TGI (SF-268 CNS): > 100 µM
GI50 (UACC-62 melanoma): 16.1 µM
TGI (UACC-62 melanoma): 32.8 µM
GI50 (UO-31 renal): 21.9 µM
TGI (UO-31 renal): 46.2 µM

c1ccc(COCC2OC3c4ccccc4COC3C2OCc2ccccc2)cc1 (stereo not drawn)
TGI (786-0 renal): > 100 µM
TGI (HCC-2998 colon): > 100 µM
TGI (KM12 colon): > 100 µM
TGI (UACC-62 melanoma): > 100 µM
TGI (UO-31 renal): > 100 µM

Cn1c2c(c3ccccc31)CCN(CCCCN1CCN(c3cccc(Cl)c3)CC1)C2=O
TGI (786-0 renal): 29.6 µM
TGI (A498 renal): 27.7 µM
TGI (SF-268 CNS): 49.9 µM
TGI (UACC-62 melanoma): 23.6 µM
TGI (UO-31 renal): 22.4 µM

COc1ccc(-c2cc(=O)c3c(O)cc(C)cc3o2)cc1OC
TGI (786-0 renal): > 100 µM
TGI (BT-549 breast): > 100 µM
TGI (HCC-2998 colon): > 100 µM
TGI (KM12 colon): > 100 µM
TGI (MDA-MB-435): > 100 µM
TGI (PC-3 prostate): > 100 µM
TGI (SF-268 CNS): > 100 µM
TGI (UACC-62 melanoma): > 100 µM
TGI (UO-31 renal): > 100 µM

C[C@H]1C(Oc2ccc(O)cc2)OC2OC3(C)CCC4[C@H](C)CCC1C24OO3 (stereo partly drawn)
GI50 (786-0 renal): 10.7 µM
TGI (786-0 renal): 27.2 µM
GI50 (A498 renal): 16.7 µM
TGI (A498 renal): 31.2 µM
GI50 (BT-549 breast): 8.34 µM
TGI (BT-549 breast): 23.7 µM
GI50 (KM12 colon): 11.4 µM
TGI (KM12 colon): > 82.1 µM
GI50 (MDA-MB-435): 12.4 µM
TGI (MDA-MB-435): 46.3 µM
GI50 (PC-3 prostate): 0.251 µM
TGI (PC-3 prostate): 14.8 µM
GI50 (SF-268 CNS): 12.9 µM
TGI (SF-268 CNS): 27.2 µM
GI50 (UACC-62 melanoma): 12.3 µM
TGI (UACC-62 melanoma): 25.5 µM
GI50 (UO-31 renal): 11 µM
TGI (UO-31 renal): 26.2 µM
